Columns and labels:
Assay in all cases: relative viability (nuclei count vs DMSO), 5 days (fraction); higher = more cells survive
NCI-H1793 = tested on: NCI-H1793
Procedure, shortened: (§1)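 A single step with final 0.05% Triton X-100, 1% formaldehyde and 1 ug/ml Hoechst fixed the cells and stained nuclei 5 days after treatment. Lung cancer cell lines in 1536-well plates had been treated by pin tool the day after seeding with one drug alone or a fixed anchor-drug dose plus five library-drug doses (not always all listed) in √10 steps, and nuclei were counted on 4× images. Relative viability is the ratio of nuclei in treated wells to nuclei in vehicle wells, taken as the median of duplicate plates.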

NCI-H522 = tested on: NCI-H522
Procedure, shortened: as §1

SW 1573 = tested on: SW 1573
Procedure, shortened: as §1

NCI-H441 = tested on: NCI-H441
Procedure, shortened: as §1

NCI-H2347 = tested on: NCI-H2347
Procedure, shortened: as §1

NCI-H2342 = tested on: NCI-H2342
Procedure, shortened: as §1

NCI-H2009 = tested on: NCI-H2009
Procedure, shortened: as §1

HCC-15 = tested on: HCC-15
Procedure, shortened: as §1

EPLC-272H = tested on: EPLC-272H
Procedure, shortened: as §1

NCI-H358 = tested on: NCI-H358
Procedure, shortened: as §1

UMC-11 = tested on: UMC-11
Procedure, shortened: as §1

CCNC(=O)c1noc(-c2cc(C(C)C)c(O)cc2O)c1-c1ccc(CN2CCOCC2)cc1 [Luminespib] + CC(=O)Nc1cccc(-n2c(=O)n(C3CC3)c(=O)c3c(Nc4ccc(I)cc4F)n(C)c(=O)c(C)c32)c1 [Trametinib] (partner 0.02 µM)
relative viability (NCI-H1793; first compound 0.002 µM): 0.428 | relative viability (NCI-H1793; first compound 0.006325 µM): 0.333 | relative viability (NCI-H1793; first compound 0.02 µM): 0.357 | relative viability (NCI-H1793; first compound 0.06325 µM): 0.187 | relative viability (NCI-H1793; first compound 0.2 µM): 0.186 | relative viability (NCI-H522; first compound 0.002 µM): 0.721 | relative viability (NCI-H522; first compound 0.006325 µM): 0.716 | relative viability (NCI-H522; first compound 0.02 µM): 0.693 | relative viability (NCI-H522; first compound 0.06325 µM): 0.635 | relative viability (NCI-H522; first compound 0.2 µM): 0.501 | relative viability (SW 1573; first compound 0.002 µM): 0.604 | relative viability (SW 1573; first compound 0.006325 µM): 0.483 | relative viability (SW 1573; first compound 0.02 µM): 0.198 | relative viability (SW 1573; first compound 0.06325 µM): 0.105 | relative viability (SW 1573; first compound 0.2 µM): 0.096 | relative viability (NCI-H441; first compound 0.002 µM): 0.555 | relative viability (NCI-H441; first compound 0.006325 µM): 0.465 | relative viability (NCI-H441; first compound 0.02 µM): 0.271 | relative viability (NCI-H441; first compound 0.06325 µM): 0.0929 | relative viability (NCI-H441; first compound 0.2 µM): 0.11 | relative viability (NCI-H2347; first compound 0.002 µM): 0.29 | relative viability (NCI-H2347; first compound 0.006325 µM): 0.307 | relative viability (NCI-H2347; first compound 0.02 µM): 0.269 | relative viability (NCI-H2347; first compound 0.06325 µM): 0.254 | relative viability (NCI-H2347; first compound 0.2 µM): 0.294 | relative viability (NCI-H2342; first compound 0.002 µM): 0.687 | relative viability (NCI-H2342; first compound 0.006325 µM): 0.881 | relative viability (NCI-H2342; first compound 0.02 µM): 0.551 | relative viability (NCI-H2342; first compound 0.06325 µM): 0.889 | relative viability (NCI-H2342; first compound 0.2 µM): 0.52 | relative viability (NCI-H2009; first compound 0.002 µM): 0.271 | relative viability (NCI-H2009; first compound 0.006325 µM): 0.225 | relative viability (NCI-H2009; first compound 0.02 µM): 0.169 | relative viability (NCI-H2009; first compound 0.06325 µM): 0.0625 | relative viability (NCI-H2009; first compound 0.2 µM): 0.0698 | relative viability (HCC-15; first compound 0.002 µM): 0.394 | relative viability (HCC-15; first compound 0.006325 µM): 0.364 | relative viability (HCC-15; first compound 0.02 µM): 0.391 | relative viability (HCC-15; first compound 0.06325 µM): 0.258 | relative viability (HCC-15; first compound 0.2 µM): 0.13 | relative viability (EPLC-272H; first compound 0.002 µM): 0.278 | relative viability (EPLC-272H; first compound 0.006325 µM): 0.309 | relative viability (EPLC-272H; first compound 0.02 µM): 0.212 | relative viability (EPLC-272H; first compound 0.06325 µM): 0.238 | relative viability (EPLC-272H; first compound 0.2 µM): 0.0855 | relative viability (NCI-H358; first compound 0.002 µM): 0.142 | relative viability (NCI-H358; first compound 0.006325 µM): 0.133 | relative viability (NCI-H358; first compound 0.02 µM): 0.0934 | relative viability (NCI-H358; first compound 0.06325 µM): 0.0702 | relative viability (NCI-H358; first compound 0.2 µM): 0.0715 | relative viability (UMC-11; first compound 0.002 µM): 0.496 | relative viability (UMC-11; first compound 0.006325 µM): 0.685 | relative viability (UMC-11; first compound 0.02 µM): 0.308 | relative viability (UMC-11; first compound 0.06325 µM): 0.212 | relative viability (UMC-11; first compound 0.2 µM): 0.157

Reference: the supplement of paper PMC10307832
